Measurements: patent publication US11420966B2 (ACLARIS THERAPEUTICS, INC., priority 2019, dated 2022)

What was measured:
Tyk-2 = Tyk-2 (Homo sapiens (Human), UniProt P29597); assay: Tyk-2 enzyme activity assay (Thermo Fisher SelectScreen, Z-lyte); assay type: biochemical; details: read-out: Tyk-2 Inhibition IC50
Method: (§1) JAK1, JAK2, JAK3, and Tyk-2 Enzyme Activity Assays
(§2) The inhibitory potency of candidate compounds of JAK1, JAK2, and Tyk-2 was done at Thermo Fisher Scientific in their Selectscreen using a Z-lyte assay. Following are the assay details for each enzyme.
TYK2: The 2×TYK2/Tyr 03 mixture is prepared in 50 mM HEPES pH 6.5, 0.01% BRIJ-35, 10 mM MgCl2, 1 mM EGTA, 0.02% NaN3. The final 10 μL Kinase Reaction consists of 3.75-15 ng TYK2 and 2 M Tyr 03 in 50 mM HEPES pH 7.0, 0.01% BRIJ-35, 10 mM MgCl2, 1 mM EGTA, 0.01% NaN3. After the one hour KinaseReaction incubation, 5 μL of a 1:4096 dilution of Development Reagent A is added.
(§3) Data reduction for JAK1, JAK2 and TYK2 is done the same, independent of the enzyme run. In summary, background signal is defined in the absence of enzyme and uninhibited signal is defined in the presence of vehicle (2% DMSO) alone. Compounds were evaluated in an 11 point dose-response ranging from […] to 0.34 nM. IC50 values of compounds are determined using a 4 parameter logistical fit of emission ratio as a function of the concentration of compound.

JAK1 = JAK1 (Homo sapiens (Human), UniProt P23458); assay: JAK1 enzyme activity assay (Thermo Fisher SelectScreen, Z-lyte); assay type: biochemical; details: read-out: JAK1 Inhibition IC50
Method: as §1, §2
JAK: The 2×JAK-enzyme/Tyr 06 mixture is prepared in 50 mM HEPES pH 6.5, 0.01% BRIJ-35, 10 mM MgCl2, 1 mM EGTA, 0.02% NaN3. The final 10 μL of the Kinase Reaction consists of 21.2-91.5 ng JAK and 2 M Tyr 06 in 50 mM HEPES pH 7.0, 0.01% BRIJ-35, 10 mM MgCl2, 1 mM EGTA, 0.01% NaN3. After the one hour Kinase Reaction incubation, 5 μL of a 1:128 dilution of Development Reagent is added.
as §3

JAK3 (a.a. 781-1124) = JAK3 (a.a. 781-1124) (Homo sapiens (Human), UniProt P52333); assay: JAK3 enzyme activity assay (SRCtide phosphorylation, Caliper); assay type: biochemical; details: 1 uM ATP; read-out: JAK3 Inhibition IC50
Method: as §1
Kinase reactions were run in a 384-well Greiner plate with 2% final DMSO concentration under the buffer conditions of 20 mM HEPES, pH 7.5, 10 mM MgCl2, 0.01% BSA, and 0.0005% Tween-20. The kinase reaction components were 2.5 nM JAK3, 1 μM SRCtide peptide and 1 uM ATP. Examples were tested in dose-response starting at 2 M (11 concentrations, 3-fold serial dilution, duplicate reactions). The reactions were incubated at room temperature for 40 minutes, then stopped by adding a 1:1 volume of 30 mM EDTA in 20 mM HEPES, pH 7.5 (15 mM EDTA final). After the reaction was stopped, the phosphorylated and unphosphorylated peptides were separated and quantified using a Caliper LC3000/EZ-Reader system and HTS Well Analyzer Software (Caliper, A PerkinElmer Company, Hopkinton, Mass.). GraFit (Erithacus Software Ltd., Horley, U.K.) was used to calculate inhibitor potency by fitting dose-response data to the 4-parameter logistical IC50 equation.

[1] = system: IL-2 stimulated STAT5 phosphorylation on Tyr694 (JAK1/3); assay: JAK1/3 cellular target modulation: IL-2 stimulated phospho-STAT5 in PBMC; assay type: cell-based; details: human PBMC, IL-2 25 ng/ml; read-out: IL2-STAT5 IC50
From the text: (§4) JAK Cellular Target Modulation Assays
(§5) Target modulation was based upon the ability of a compound to inhibit JAK isoform specific phosphorylation of selected substrates. IL-2 stimulated STAT5 phosphorylation on Tyr694 was used to assess JAK1/3 compound selectivity. GM-CSF stimulated STAT5 phosphorylation on Tyr694 was used to assess JAK2 compound selectivity. IFNγ stimulated STAT1 phosphorylation on Tyr701 was used to assess JAK1/2 compound selectivity. IL-12 stimulated STAT4 phosphorylation on Tyr693 was used to assess JAK2/TYK2 compound selectivity. For all four assays, human PBMC from frozen stocks were thawed, pelleted, resuspended in complete media (90% RPMI, 10% heat inactivated FBS, 10 mM HEPES, 47 μM 2-ME, pen/strep) and placed in wells of a 96 well V-bottom plate at 200,000 per well in 120 μl complete media. Compounds were added as 15 μl per well of 10× working stock solutions in complete media with 1% DMSO (or medium with 1% DMSO for controls) and placed on a plate shaker in a 37° C. incubator with 5% CO2 for 1 hour with gentle shaking (setting of 3). Stimulation used the addition of soluble cytokines. For the JAK1/3 phospho-STAT5 assay, 15 μl of 10× working stock recombinant human IL-2 was added to a final concentration of 25 ng/ml. For the JAK2 phospho-STAT5 assay, 15 μl of 10× working stock recombinant human GM-CSF was added to a final concentration of 5 ng/ml. For the JAK1/2 phospho-STAT1 assay, 15 μl of 10× working stock of recombinant human IFNγ was added to a final concentration of 10 ng/ml. For the JAK2/TYK2 phospho-STAT4 assay, 15 μl of 10× working stock of recombinant human IL-12 was added to a final concentration of 1.7 ng/ml. Plates were then placed back on the plate shaker in the incubator for an additional 5, 5, 10, and 25 minutes respectively upon which the plates were removed from the incubator, sealed with a plate sealer and the cells pelleted at 400×g for 5 minutes. After pelleting, the media was removed by aspiration and the cells were lysed in assay specific cell lysis buffer. The levels of phospho-STATS were determined using a Phospho (Tyr694) STAT5a,b Whole Cell Lysate kit from Meso Scale Discovery. Levels of phospho-STAT1 were determined using a CST-PathScan Phospho-STAT1 (Tyr701) Sandwich ELISA kit. Levels of phospho-STAT4 were determined using a Phospho-STAT4 (Tyr693) Whole Cell Lysate kit from Meso Scale Discovery.

JAK2 = JAK2 (Homo sapiens (Human), UniProt O60674); assay: JAK2 enzyme activity assay (Thermo Fisher SelectScreen, Z-lyte); assay type: biochemical; details: read-out: JAK2 Inhibition IC50
Method: as §1, §2
JAK2: The 2×JAK2/Tyr 06 mixture is prepared in 50 mM HEPES pH 7.5, 0.01% BRIJ-35, 10 mM MgCl2, 1 mM EGTA. The final 10 μL Kinase Reaction consists of 0.12-0.5 ng JAK2 and 2 M Tyr 06 in 50 mM HEPES pH 7.5, 0.01% BRIJ-35, 10 mM MgCl2, 1 mM EGTA. After the one hour Kinase Reaction incubation, 5 μL of a 1:128 dilution of Development Reagent A is added.
as §3

[2] = system: IFNγ stimulated STAT1 phosphorylation on Tyr701 (JAK1/2); assay: JAK1/2 cellular target modulation: IFNγ stimulated phospho-STAT1 in PBMC; assay type: cell-based; details: human PBMC, IFNγ 10 ng/ml; read-out: Infγ-STAT1 IC50
From the text: as §4, §5

Chain of JAK1 (P23458 whole entry): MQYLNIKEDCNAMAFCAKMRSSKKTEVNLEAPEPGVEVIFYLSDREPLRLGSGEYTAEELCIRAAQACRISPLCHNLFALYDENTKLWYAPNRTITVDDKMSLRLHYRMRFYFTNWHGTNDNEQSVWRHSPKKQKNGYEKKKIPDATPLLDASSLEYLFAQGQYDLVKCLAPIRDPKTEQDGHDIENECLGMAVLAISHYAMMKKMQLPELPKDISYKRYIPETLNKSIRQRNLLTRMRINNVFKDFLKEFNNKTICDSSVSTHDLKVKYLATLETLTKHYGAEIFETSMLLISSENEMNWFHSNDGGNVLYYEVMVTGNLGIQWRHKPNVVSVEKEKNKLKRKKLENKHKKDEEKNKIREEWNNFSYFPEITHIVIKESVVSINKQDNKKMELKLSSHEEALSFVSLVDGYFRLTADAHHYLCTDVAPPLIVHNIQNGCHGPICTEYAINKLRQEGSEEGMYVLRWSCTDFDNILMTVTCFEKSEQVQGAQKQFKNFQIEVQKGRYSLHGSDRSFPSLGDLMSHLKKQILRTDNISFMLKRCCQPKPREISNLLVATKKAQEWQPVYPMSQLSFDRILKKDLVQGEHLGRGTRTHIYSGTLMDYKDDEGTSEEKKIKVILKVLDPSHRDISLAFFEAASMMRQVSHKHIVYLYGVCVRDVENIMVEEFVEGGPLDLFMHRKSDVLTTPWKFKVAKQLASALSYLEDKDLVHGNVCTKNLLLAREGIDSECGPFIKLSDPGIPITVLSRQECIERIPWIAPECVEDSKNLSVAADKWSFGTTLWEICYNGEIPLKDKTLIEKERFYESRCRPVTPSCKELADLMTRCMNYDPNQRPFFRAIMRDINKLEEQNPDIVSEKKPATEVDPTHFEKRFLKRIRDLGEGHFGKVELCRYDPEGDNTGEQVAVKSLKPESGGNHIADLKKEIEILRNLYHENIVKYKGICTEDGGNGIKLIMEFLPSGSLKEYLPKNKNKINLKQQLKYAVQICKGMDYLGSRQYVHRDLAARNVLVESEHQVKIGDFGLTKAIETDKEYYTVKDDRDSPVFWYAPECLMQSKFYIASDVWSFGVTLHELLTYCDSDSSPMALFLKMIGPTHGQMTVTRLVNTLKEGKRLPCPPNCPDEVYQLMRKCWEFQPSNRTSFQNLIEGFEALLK
Chain of Tyk-2 (P29597 whole entry): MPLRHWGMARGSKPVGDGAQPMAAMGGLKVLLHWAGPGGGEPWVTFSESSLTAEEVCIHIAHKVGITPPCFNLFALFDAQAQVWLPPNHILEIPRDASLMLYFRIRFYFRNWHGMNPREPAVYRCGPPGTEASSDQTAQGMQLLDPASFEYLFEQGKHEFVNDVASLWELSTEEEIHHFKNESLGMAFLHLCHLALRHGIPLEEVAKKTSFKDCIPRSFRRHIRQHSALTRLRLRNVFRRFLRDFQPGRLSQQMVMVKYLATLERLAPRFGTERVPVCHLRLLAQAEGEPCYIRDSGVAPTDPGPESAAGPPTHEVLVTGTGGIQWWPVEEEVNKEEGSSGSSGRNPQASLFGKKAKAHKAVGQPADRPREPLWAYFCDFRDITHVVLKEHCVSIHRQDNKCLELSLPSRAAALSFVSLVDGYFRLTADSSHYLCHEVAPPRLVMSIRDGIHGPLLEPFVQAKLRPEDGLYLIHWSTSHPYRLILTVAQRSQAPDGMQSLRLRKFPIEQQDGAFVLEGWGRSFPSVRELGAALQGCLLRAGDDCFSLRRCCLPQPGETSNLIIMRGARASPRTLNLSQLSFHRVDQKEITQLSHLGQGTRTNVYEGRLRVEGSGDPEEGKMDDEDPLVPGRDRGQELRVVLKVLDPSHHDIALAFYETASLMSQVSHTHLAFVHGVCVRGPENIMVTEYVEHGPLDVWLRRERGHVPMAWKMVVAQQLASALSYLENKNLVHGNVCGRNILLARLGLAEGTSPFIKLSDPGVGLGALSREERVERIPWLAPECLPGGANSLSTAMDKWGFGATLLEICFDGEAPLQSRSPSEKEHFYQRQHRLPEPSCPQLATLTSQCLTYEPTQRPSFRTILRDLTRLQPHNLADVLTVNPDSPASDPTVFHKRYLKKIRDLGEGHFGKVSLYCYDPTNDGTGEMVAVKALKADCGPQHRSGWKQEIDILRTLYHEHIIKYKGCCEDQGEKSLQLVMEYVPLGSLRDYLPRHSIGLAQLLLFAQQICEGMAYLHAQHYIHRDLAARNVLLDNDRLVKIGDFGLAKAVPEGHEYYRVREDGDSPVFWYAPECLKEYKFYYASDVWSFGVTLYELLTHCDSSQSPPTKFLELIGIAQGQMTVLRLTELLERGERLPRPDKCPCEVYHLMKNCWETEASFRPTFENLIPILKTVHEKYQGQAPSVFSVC
Chain of JAK2 (O60674 whole entry): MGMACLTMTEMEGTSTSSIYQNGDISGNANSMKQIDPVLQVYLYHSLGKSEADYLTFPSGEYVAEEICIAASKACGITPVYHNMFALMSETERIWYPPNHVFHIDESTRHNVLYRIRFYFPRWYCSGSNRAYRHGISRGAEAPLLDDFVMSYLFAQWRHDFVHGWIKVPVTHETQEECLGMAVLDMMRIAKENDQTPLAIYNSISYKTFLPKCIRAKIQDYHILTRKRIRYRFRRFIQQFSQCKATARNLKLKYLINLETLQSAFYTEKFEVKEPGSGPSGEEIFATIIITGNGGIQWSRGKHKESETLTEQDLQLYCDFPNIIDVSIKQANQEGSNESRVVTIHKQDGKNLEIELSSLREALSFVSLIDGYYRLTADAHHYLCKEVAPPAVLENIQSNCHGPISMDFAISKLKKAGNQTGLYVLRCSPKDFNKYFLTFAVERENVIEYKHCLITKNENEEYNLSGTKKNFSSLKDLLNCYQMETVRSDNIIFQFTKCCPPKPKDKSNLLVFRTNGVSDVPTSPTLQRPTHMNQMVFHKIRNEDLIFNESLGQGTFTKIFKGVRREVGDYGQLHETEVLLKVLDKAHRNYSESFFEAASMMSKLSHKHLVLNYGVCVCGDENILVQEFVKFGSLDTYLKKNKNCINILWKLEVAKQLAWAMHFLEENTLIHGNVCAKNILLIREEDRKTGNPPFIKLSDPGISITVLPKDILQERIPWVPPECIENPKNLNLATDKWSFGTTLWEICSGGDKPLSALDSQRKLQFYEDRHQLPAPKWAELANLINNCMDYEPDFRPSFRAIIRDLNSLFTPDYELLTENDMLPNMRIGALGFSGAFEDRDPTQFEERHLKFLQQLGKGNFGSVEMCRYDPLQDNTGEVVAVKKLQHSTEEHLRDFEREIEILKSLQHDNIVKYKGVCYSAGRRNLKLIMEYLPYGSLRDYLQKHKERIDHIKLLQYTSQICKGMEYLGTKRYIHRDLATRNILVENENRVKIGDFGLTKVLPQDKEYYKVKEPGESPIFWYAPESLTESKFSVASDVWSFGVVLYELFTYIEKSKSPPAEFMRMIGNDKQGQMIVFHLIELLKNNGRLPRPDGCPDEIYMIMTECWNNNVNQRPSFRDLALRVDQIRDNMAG
Chain of JAK3 (a.a. 781-1124) (P52333 781-1124): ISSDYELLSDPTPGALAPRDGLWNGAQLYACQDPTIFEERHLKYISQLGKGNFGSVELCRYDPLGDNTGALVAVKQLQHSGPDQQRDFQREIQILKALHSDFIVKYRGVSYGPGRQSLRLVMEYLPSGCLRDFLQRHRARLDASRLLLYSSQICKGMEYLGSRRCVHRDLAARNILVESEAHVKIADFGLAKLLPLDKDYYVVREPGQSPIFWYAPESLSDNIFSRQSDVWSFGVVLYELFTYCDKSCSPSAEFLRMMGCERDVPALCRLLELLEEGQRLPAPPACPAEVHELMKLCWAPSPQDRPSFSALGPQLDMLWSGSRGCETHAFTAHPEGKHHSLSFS

Row | IC50 (Tyk-2) [nM] | IC50 (JAK1) [nM] | IC50 (JAK3 (a.a. 781-1124)) [nM] | IC50 [1] [nM] | IC50 (JAK2) [nM] | IC50 [2] [nM] | Structure (SMILES)
1 | ≤ 10 | ≤ 10 | ≤ 10 |  |  |  | N#CCC(=O)N1CCC[C@@H](Nc2c(-c3ccncn3)cnc3[nH]ccc23)C1 [Example 24, (R)-3-oxo-3-(3-((5-(pyrimidin-4-yl)-1H-pyrrolo[2,3-b]pyridin-4-yl)amino)piperidin-1-yl)propanenitrile]
2 | 10 to 100 | ≤ 10 | ≤ 10 | > 1000 | 10 to 100 |  | CN(C(=O)CC#N)C1CCN(c2nccc(-c3cnc4[nH]ccc4c3N[C@@H]3CCCN(C(=O)CC#N)C3)n2)C1 (stereo partly drawn) [Example 50, 2-cyano-N-(1-(4-(4-(((R)-1-(2-cyanoacetyl)piperidin-3-yl)amino)-1H-pyrrolo[2,3-b]pyridin-5-yl)pyrimidin-2-yl)pyrrolidin-3-yl)-N-methylacetamide]
3 | 10 to 100 | ≤ 10 | ≤ 10 | ≤ 100 | 10 to 100 | 100 to 1000 | CC(=O)c1cnc(-c2cnc3[nH]ccc3c2N[C@@H]2CCCN(C(=O)CC#N)C2)o1 [Example 66, (R)-3-(3-((5-(5-acetyloxazol-2-yl)-1H-pyrrolo[2,3-b]pyridin-4-yl)amino)piperidin-1-yl)-3-oxopropanenitrile]
4 | 100 to 1000 | 10 to 100 | 10 to 100 | 100 to 1000 | 100 to 1000 | > 1000 | Cc1ncc(-c2cnc3[nH]ccc3c2N[C@@H]2CCCN(C(=O)CC#N)C2)s1 [Example 3, (R)-3-(3-((5-(2-methylthiazol-5-yl)-1H-pyrrolo[2,3-b]pyridin-4-yl)amino)piperidin-1-yl)-3-oxopropanenitrile]
5 |  | ≤ 10 |  |  |  |  | N#CCC(=O)N1CCC[C@@H](Nc2c(-c3nncs3)cnc3[nH]ccc23)C1 [Example 8, (R)-3-(3-((5-(1,3,4-thiadiazol-2-yl)-1H-pyrrolo[2,3-b]pyridin-4-yl)amino)piperidin-1-yl)-3-oxopropanenitrile]
6 | 100 to 1000 | 10 to 100 | 10 to 100 | 100 to 1000 | 100 to 1000 | > 1000 | N#CCC(=O)N1CCC[C@@H](Nc2c(-c3cncs3)cnc3[nH]ccc23)C1 [Example 16, (R)-3-oxo-3-(3-((5-(thiazol-5-yl)-1H-pyrrolo[2,3-b]pyridin-4-yl)amino)piperidin-1-yl)propanenitrile]
7 | 100 to 1000 | 10 to 100 | 100 to 1000 | > 1000 | 10 to 100 |  | CN(C)S(=O)(=O)Nc1ccnc(-c2cnc3[nH]ccc3c2N[C@@H]2CCCN(C(=O)CC#N)C2)c1 [Example 54, (R)-N-(2-(4-((1-(2-cyanoacetyl)piperidin-3-yl)amino)-1H-pyrrolo[2,3-b]pyridin-5-yl)pyridin-4-yl)N,N-dimethyl sulfuric diamide]
8 | 100 to 1000 | 100 to 1000 | 10 to 100 | > 1000 | 100 to 1000 |  | CNC(=O)c1coc(-c2cnc3[nH]ccc3c2N[C@H]2C[C@@H](C)CN(C(=O)CC#N)C2)n1 [Example 32, 2-(4-(((3S,5R)-1-(2-cyanoacetyl)-5-methylpiperidin-3-yl)amino)-1H-pyrrolo[2,3-b]pyridin-5-yl)-N-methyloxazole-4-carboxamide]
9 | 100 to 1000 | 100 to 1000 | 10 to 100 | > 1000 | 100 to 1000 |  | C[C@@H]1C[C@H](Nc2c(-c3ccncn3)cnc3[nH]ccc23)CN(C(=O)CC#N)C1 [Example 57, 3-((3R,5S)-3-methyl-5-((5-(pyrimidin-4-yl)-1H-pyrrolo[2,3-b]pyridin-4-yl)amino)piperidin-1-yl)-3-oxopropanenitrile]
10 | 100 to 1000 | 100 to 1000 | 10 to 100 | > 1000 | 100 to 1000 |  | C[C@@H]1C[C@H](Nc2c(-c3ncco3)cnc3[nH]ccc23)CN(C(=O)CC#N)C1 (single isomer, unassigned) [Example 9]
11 | 10 to 100 | ≤ 10 |  |  |  |  | Cc1ccnc(-c2cnc3[nH]ccc3c2N[C@@H]2CCCN(C(=O)CC#N)C2)n1 [Example 60]
12 | 100 to 1000 | 10 to 100 | 100 to 1000 | > 1000 | 100 to 1000 |  | CS(=O)(=O)Nc1ccnc(-c2cnc3[nH]ccc3c2N[C@@H]2CCCN(C(=O)CC#N)C2)c1 [Example 56, (R)-N-(2-(4-((1-(2-cyanoacetyl)piperidin-3-yl)amino)-1H-pyrrolo[2,3-b]pyridin-5-yl)pyridin-4-yl)methanesulfonamide]
13 | > 1000 | > 1000 | > 1000 | > 1000 | > 1000 |  | Cn1ccnc1-c1cnc2[nH]ccc2c1N[C@@H]1CCCN(C(=O)CC#N)C1 [Example 17, (R)-3-(3-((5-(1-methyl-1H-imidazol-2-yl)-1H-pyrrolo[2,3-b]pyridin-4-yl)amino)piperidin-1-yl)-3-oxopropanenitrile]
14 | 100 to 1000 | 10 to 100 | 10 to 100 | > 1000 | 10 to 100 |  | CNC(=O)c1ccnc(-c2cnc3[nH]ccc3c2N[C@@H]2CCCN(C(=O)CC#N)C2)c1 [Example 61, (R)-2-(4-((1-(2-cyanoacetyl)piperidin-3-yl)amino)-1H-pyrrolo[2,3-b]pyridin-5-yl)-N-methylisonicotinamide]
